We go through 41 molecules from the supplement of paper PMC9265050, “Inhibition of RNA Binding in SND1 Increases the Levels of miR-1-3p and Sensitizes Cancer Cells to Navitoclax” (Cancers, 2022).

Each structure is given as a SMILES string.

This test deals with SW480. Description: drug sensitivity score (DSS, integrated dose-response area); higher = more sensitive (stronger viability reduction); extreme values may be limits of the assay. In short, it runs like this:
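Viability of induced SW480 cells carrying control or SND1-targeting shRNA was read by CellTiter-Glo 72 h after plating at 1000 cells per well onto 384-well plates holding 525 small-molecule inhibitors at five concentrations. Induction used 0.1 µg/mL doxycycline for 7 days. Each drug sensitivity score integrates the area under a fitted non-linear dose–response model.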

The mark [1] stands for this setting: shRNA: SND1 shRNA1 (SND1 silenced).
The mark [2] stands for this setting: shRNA: SND1 shRNA2 (SND1 silenced).
Setting [3] is: shRNA: control shRNA (non-targeting).

Take `C=CCNC1=C2C[C@@H](C)C[C@H](OC)[C@H](O)[C@@H](C)/C=C(\C)[C@H](OC(N)=O)[C@@H](OC)/C=C\C=C(/C)C(=O)NC(=CC1=O)C2=O` [Tanespimycin]: the drug sensitivity score was determined as 10.5 DSS under setting [1], 11.7 DSS under setting [2] and 16.1 DSS under setting [3].
Consider `CCCCCOC(=O)Nc1nc(=O)n([C@@H]2O[C@H](C)[C@@H](O)[C@H]2O)cc1F` [Capecitabine], for which the drug sensitivity score runs as follows: under setting [1], 0 DSS; under setting [2], 0 DSS; under setting [3], 0 DSS.
In turn, `CN(C)/N=N/c1[nH]cnc1C(N)=O` [Dacarbazine] yielded a drug sensitivity score under setting [1] of 0 DSS, a drug sensitivity score under setting [2] of 1.9 DSS and a drug sensitivity score under setting [3] of 0.7 DSS.
As to `O=C(O)CC1CC(c2ccccc2)=NO1` (centres undefined) [VGX-1027], the drug sensitivity score runs as follows: under setting [1], 0.2 DSS; under setting [2], 2.3 DSS; under setting [3], 0 DSS.
The like results for `CCS(=O)(=O)N1CC(CC#N)(n2cc(-c3ncnc4[nH]ccc34)cn2)C1` [Baricitinib] were, in that order, 0 DSS, 0.3 DSS and 1 DSS.
The like results for `CCS(=O)(=O)c1cccc(-c2cc(C(=O)NC3CCN(C)CC3)c(C)c3[nH]c4ncc(C)cc4c23)c1` [TAK-901] were, in that order, 0.6 DSS, 0 DSS and 2.1 DSS.
The like results for `CC(C)[C@H]1C(=O)N[C@@H](CCCNC(=N)N)C(=O)NCC(=O)N[C@@H](CC(=O)O)C(=O)N[C@H](Cc2ccccc2)C(=O)N1C` [Cilengitide] were, in that order, 0 DSS, 0 DSS and 0 DSS.
With `O=[N+]([O-])c1ccc2c(c1)S(=O)(=O)C=C2` [Stattic], the drug sensitivity score runs as follows: under setting [1], 16 DSS; under setting [2], 15.8 DSS; under setting [3], 9.5 DSS.
The molecule `Cn1nccc1Nc1nccc(-c2ccn([C@H](CO)c3ccc(Cl)c(F)c3)c(=O)c2)n1` [GDC-0994] registered a drug sensitivity score under setting [1] of 5.9 DSS, a drug sensitivity score under setting [2] of 0.2 DSS and a drug sensitivity score under setting [3] of 5.2 DSS.
Consider `Cc1cc(C(=O)NOCCO)c(Nc2ccc(I)cc2F)n(C)c1=O` [AZD-8330], for which the drug sensitivity score is, setting by setting: under setting [1], 32.4 DSS; under setting [2], 22.9 DSS; under setting [3], 18.4 DSS.
Consider `COC(=O)c1ccc2c(c1)NC(=O)/C2=C(\Nc1ccc(N(C)C(=O)CN2CCN(C)CC2)cc1)c1ccccc1` [Nintedanib], for which the drug sensitivity score runs as follows: under setting [1], 8.4 DSS; under setting [2], 6.8 DSS; under setting [3], 0 DSS.
The like results for `CS(=O)(=O)CCNCc1ccc(-c2ccc3ncnc(Nc4ccc(OCc5cccc(F)c5)c(Cl)c4)c3c2)o1` [Lapatinib] were, in that order, 0 DSS, 0 DSS and 0.9 DSS.
For the molecule `FC(F)(F)c1ccc(CNc2ccc(Cc3c[nH]c4ncc(Cl)cc34)cn2)cn1` [Pexidartinib], the drug sensitivity score runs as follows: under setting [1], 0.3 DSS; under setting [2], 0.8 DSS; under setting [3], 0.7 DSS.
In the case of `CO[C@H]1C[C@@H]2CC[C@@H](C)[C@@](O)(O2)C(=O)C(=O)N2CCCC[C@H]2C(=O)O[C@H]([C@H](C)C[C@@H]2CC[C@@H](OC(=O)C(C)(CO)CO)[C@H](OC)C2)CC(=O)[C@H](C)/C=C(\C)[C@@H](O)[C@@H](OC)C(=O)[C@H](C)C[C@H](C)/C=C/C=C/C=C/1C` [Temsirolimus], the drug sensitivity score by setting is: under setting [1], 11.9 DSS; under setting [3], 9.5 DSS.
`CC[C@@]1(O)C(=O)OCc2c1cc1n(c2=O)Cc2cc3c(CN(C)C)c(O)ccc3nc2-1` [Topotecan]: the drug sensitivity score worked out at 11.3 DSS under setting [1], 8.8 DSS under setting [2] and 9.7 DSS under setting [3].
The matching figures for `C[C@@H](Nc1cc(F)cc(F)c1)c1cc(C(=O)N(C)C)cc2c(=O)cc(N3CCOCC3)oc12` [AZD-8186]: 0 DSS, 0 DSS and 0 DSS.
The like results for `CC(=O)O[C@H]1C(=O)[C@@]2(C)[C@H]([C@H](OC(=O)c3ccccc3)[C@]3(O)C[C@H](OC(=O)[C@H](O)[C@@H](NC(=O)c4ccccc4)c4ccccc4)C(C)=C1C3(C)C)[C@]1(OC(C)=O)CO[C@@H]1C[C@@H]2O` [Paclitaxel] were, in that order, 11.5 DSS, 12.5 DSS and 14.1 DSS.
In the case of `Cc1nc(Nc2ncc(C(=O)Nc3c(C)cccc3Cl)s2)cc(N2CCN(CCO)CC2)n1` [Dasatinib], the drug sensitivity score is 0.5 DSS under setting [1], 6.2 DSS under setting [2] and 2.1 DSS under setting [3].
The like results for `CN(C[C@@H]1COCCO1)S(=O)(=O)Nc1ccc2ccc3ncc(-c4cnn(C)c4)cc3c(=O)c2c1` [MK-2461] were, in that order, 0.6 DSS, 0 DSS and 0.3 DSS.
For the molecule `O=S(=O)(c1cccc2c(O)nccc12)N1CCCNCC1` [Hydroxyfasudil], the drug sensitivity score runs as follows: under setting [1], 1.6 DSS; under setting [3], 3.5 DSS.
Consider `CN1CCC(CNc2ccc3ncc(-c4cccc(OC(F)(F)F)c4)n3n2)CC1` [SGI-1776], for which the drug sensitivity score worked out at 9.6 DSS under setting [1], 9.5 DSS under setting [2] and 8.9 DSS under setting [3].
The matching figures for `Cc1cnc(NC(=O)Nc2cc(Br)c(C)cc2OC[C@@H]2CNCCO2)cn1` [Rabusertib]: 1.8 DSS, 1.4 DSS and 2 DSS.
Take `C[C@@H](Oc1ccc2[nH]nc(/C=C/c3cnn(CCO)c3)c2c1)c1c(Cl)cncc1Cl`: the drug sensitivity score reads like this: under setting [1], 8.9 DSS; under setting [2], 3.6 DSS; under setting [3], 4.2 DSS.
The like results for `CN(C)c1cc2c(cc1Sc1nc3c(N)nccc3n1CCNCC(C)(C)C)OCO2` [CUDC-305] were, in that order, 13.3 DSS, 13.1 DSS and 14.9 DSS.
As for `C1=N/C2=N/c3ccc(OCCN4CCCC4)c(c3)COC/C=C/COCc3cccc(c3)C(=C1)N2` [Pacritinib], the drug sensitivity score was found to be 9.6 DSS under setting [1] and 10 DSS under setting [3].
As to `CC1(COc2ccc3c(c2)ncn3-c2ccc3cccc(N4CCC(N)CC4)c3n2)COC1` [Crenolanib], the drug sensitivity score was determined as 11.9 DSS under setting [1], 11.7 DSS under setting [2] and 13 DSS under setting [3].
The like results for `Oc1ccc2c(c1)CC[C@H](c1ccccc1)[C@@H]2c1ccc(OCCN2CCCC2)cc1` [Lasofoxifene] were, in that order, 0.8 DSS, 0.7 DSS and 2 DSS.
Take `COCC1(CO)C(=O)C2CCN1CC2` (centres undefined) [APR-246]: the drug sensitivity score by setting is: under setting [1], 0 DSS; under setting [2], 1.1 DSS; under setting [3], 2 DSS.
For `COc1ccc2c(OCc3nnc4ccc(-c5ccccc5)nn34)ccnc2c1` [AMG-208], the drug sensitivity score came out at 0 DSS under setting [1], 2 DSS under setting [2] and 0.5 DSS under setting [3].
As for `Nc1ncnc2c1nc(N)n2[C@@H]1O[C@H](CO)[C@@H](O)[C@H]1O` [8-amino-adenosine], the drug sensitivity score was 23.6 DSS under setting [1], 24.3 DSS under setting [2] and 22.2 DSS under setting [3].
The like results for `CS(=O)(=O)c1ccc(C(=O)Nc2ccc(Cl)c(-c3ccccn3)c2)c(Cl)c1` [Vismodegib] were, in that order, 0 DSS, 0 DSS and 0 DSS.
The like results for `Cc1nc(=O)c2cc(CN(C)c3ccc(C(=O)N[C@@H](CCC(=O)O)C(=O)O)s3)ccc2[nH]1` [Raltitrexed] were, in that order, 5.2 DSS, 0 DSS and 4.8 DSS.
As for `O=C(O)c1ccc(Nc2ncc3c(n2)-c2ccc(Cl)cc2C(c2c(F)cccc2F)=NC3)cc1` [MLN-8054], the drug sensitivity score under setting [1] was determined as 6.3 DSS and the drug sensitivity score under setting [3] was determined as 6.5 DSS.
As to `Cc1c(Cn2c(C)nc3c(C(=O)O)cc(N4CCOCC4)cc32)cccc1C(F)(F)F`, the drug sensitivity score worked out at 2 DSS under setting [1], 3.3 DSS under setting [2] and 0.8 DSS under setting [3].
The like results for `Cc1c(CN2CCN(C(=O)[C@H](C)O)CC2)sc2c(N3CCOCC3)nc(-c3cnc(N)nc3)nc12` [Apitolisib] were, in that order, 11 DSS, 9.3 DSS and 6.6 DSS.
Take `Cc1sc2c(c1C)C(c1ccc(Cl)cc1)=N[C@@H](CC(=O)Nc1ccc(O)cc1)c1nnc(C)n1-2` [OTX015]: the drug sensitivity score by setting is: under setting [1], 1.9 DSS; under setting [2], 0.8 DSS; under setting [3], 0.7 DSS.
The matching figures for `CN(C)C(=O)c1ccc(S(=O)(=O)c2ccc(NC(=O)[C@@](C)(O)C(F)(F)F)c(Cl)c2)cc1` [AZD7545]: 0 DSS, 2.4 DSS and 0 DSS.
The matching figures for `Cc1ccc2nc(CN(CCN(Cc3nc4ccc(C)cc4[nH]3)Cc3nc4ccc(C)cc4[nH]3)Cc3nc4ccc(C)cc4[nH]3)[nH]c2c1`: 1.5 DSS, 1.3 DSS and 2.1 DSS.
The like results for `c1ccc([C@H]2CN3CCSC3=N2)cc1` [Levamisole] were, in that order, 0 DSS, 0 DSS and 0 DSS.
Turning to `COc1ccc(COc2cc3oc(=O)c4cc(C(C)O)ccc4c3cc2OC)cc1` (centres undefined) [Palomid-529], the drug sensitivity score runs as follows: under setting [1], 0 DSS; under setting [2], 0 DSS; under setting [3], 1.7 DSS.
For `Nc1ccccc1NC(=O)c1ccc(CNC(=O)OCc2cccnc2)cc1` [Entinostat], the drug sensitivity score was 5.3 DSS under setting [1], 2.6 DSS under setting [2] and 2.8 DSS under setting [3].
